Assay results: patent US7527021B2, “Non-invasive drug self-administration system for animals” (University of Virginia Patent Foundation, priority 2003, dated 2009)

Tests used:
[1] = 20/mg/kg cocaine via IP injection; cited from earlier work
mice = test: Intranasal aerosol cocaine self-administration, nose-poke frequency (FIG. 4); settings: intra-nasal aerosol; inverted-U dose response, less self-administration at higher and lower concentrations; 4 h sessions
[2] = Cocaine levels in the brains of self-administering animals (ELISA); settings: self-administered aerosol
Description: Animals were allowed access to the self administration system of the present invention and the number of nosepokes was recorded using two different concentrations of cocaine (1.8 or 21 mg/kg/spray). Animals were sacrificed within 20 min (animals 3,4) or 1 hr (animals 1,2) of last nosepoke, and all nosepokes occurred within less than 1 hr.

COC(=O)[C@H]1[C@@H](OC(=O)c2ccccc2)C[C@@H]2CC[C@H]1N2C [cocaine]
cocaine in the brain [1]: 0.96 mg/kg | cocaine concentration at which animals nose-poke most frequently (mice): ~0.9 mg/kg/infusion | Cocaine conc in brain ([2]; animal 1, 6 pokes × 1.8 mg/kg/spray, sacrificed within 1 hr of last nosepoke): 0.08 (mg/kg) | Cocaine conc in brain ([2]; animal 2, 4 pokes × 1.8 mg/kg/spray, sacrificed within 1 hr of last nosepoke): 0.28 mg/kg | Cocaine conc in brain ([2]; animal 3, 1 poke × 21.0 mg/kg/spray, sacrificed within 20 min of last nosepoke): 1.03 mg/kg | Cocaine conc in brain ([2]; animal 4, 2 pokes × 21.0 mg/kg/spray, sacrificed within 20 min of last nosepoke): 2.96 mg/kg
